Like-named read-outs stand apart in the source and are kept apart here. Where no end group is shown, it is not given here.
Key:
Type in all cases: cell-based
human Y2 receptor = target: T1, human Y2 receptor (Homo sapiens, UniProt P49146); experiment: Human Y2 receptor potency assay (inositol phosphate turnover)
T1 construct: expressed in transfected cells; host or cells: COS-7 cells, transient transfection, co-transfected with Gqi5
T1 sequence (P49146 1-381): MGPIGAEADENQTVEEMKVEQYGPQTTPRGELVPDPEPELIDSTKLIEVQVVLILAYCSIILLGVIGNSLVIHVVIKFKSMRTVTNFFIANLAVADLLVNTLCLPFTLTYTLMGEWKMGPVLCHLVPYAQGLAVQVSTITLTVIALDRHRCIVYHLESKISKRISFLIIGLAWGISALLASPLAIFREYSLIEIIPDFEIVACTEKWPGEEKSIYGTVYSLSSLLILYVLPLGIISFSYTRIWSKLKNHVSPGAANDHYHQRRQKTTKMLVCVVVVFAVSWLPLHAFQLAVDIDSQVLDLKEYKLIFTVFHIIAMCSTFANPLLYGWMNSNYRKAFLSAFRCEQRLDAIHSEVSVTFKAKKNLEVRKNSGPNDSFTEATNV
Method: Potency of the test compounds on the human Y2 receptor is determined by performing dose-response experiments in COS-7 cells transiently transfected with the human Y2 receptor as well as a promiscuous G protein, Gqi5 which ensures that the Y2 receptor couples through a Gq pathway leading to an increase in inositol phosphate turnover. […] After stimulation with various concentrations of peptide for 45 min at 37 C, cells are extracted with 10% ice-cold perchloric acid followed by incubation on ice for 30 min. […] Determinations are made in duplicates.

human Y1 receptor = target: T2, human Y1 receptor (Homo sapiens, UniProt P25929); experiment: Human Y1 receptor potency assay (inositol phosphate turnover)
T2 construct: expressed in transfected cells; host or cells: COS-7 cells
T2 sequence (P25929 1-384): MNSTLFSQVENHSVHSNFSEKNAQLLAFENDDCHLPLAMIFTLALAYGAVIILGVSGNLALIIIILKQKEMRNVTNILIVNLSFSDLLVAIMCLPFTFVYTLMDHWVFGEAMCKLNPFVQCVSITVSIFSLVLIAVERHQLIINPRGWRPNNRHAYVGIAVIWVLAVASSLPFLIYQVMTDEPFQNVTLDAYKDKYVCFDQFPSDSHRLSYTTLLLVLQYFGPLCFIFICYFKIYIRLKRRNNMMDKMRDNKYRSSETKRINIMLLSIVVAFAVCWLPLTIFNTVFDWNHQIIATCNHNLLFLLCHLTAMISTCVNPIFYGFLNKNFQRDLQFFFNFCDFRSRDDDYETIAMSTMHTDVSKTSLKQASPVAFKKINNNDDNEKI
Method: Cells are washed twice in buffer, 20 mM HEPES, pH 7.4, supplemented with 140 mM NaCl, 5 mM KCl, 1 mM MgSO4, 1 mM CaCl2, 10 mM glucose, 0.05% (w/v) bovine serum; and are incubated in 0.5 ml buffer supplemented with 10 mM LiCl at 37 C for 30 min. After stimulation with various concentrations of peptide for 45 min at 37 C, cells are extracted with 10% ice-cold perchloric acid followed by incubation on ice for 30 min. The resulting supernatants are neutralized with KOH in HEPES buffer, and the generated [3H]-inositol phosphate are purified on Bio-Rad AG 1-X8 anion-exchange resin and counted in a beta counter. Determinations are made in duplicates. EC50 values were calculated using a standard pharmacological data handling software, Prism 3.0 (graphpad Sofware, San Diego, USA).
Protocol as for the Y2 potency assay, except that human Y1-transformed COS-7 cells are used.

human Y4 receptor = target: T3, human Y4 receptor (Homo sapiens, UniProt P50391); experiment: Human Y4 receptor potency assay (inositol phosphate turnover)
T3 construct: expressed in transfected cells; host or cells: COS-7 cells
Method: After stimulation with various concentrations of peptide for 45 min at 37 C, cells are extracted with 10% ice-cold perchloric acid followed by incubation on ice for 30 min. The resulting supernatants are neutralized with KOH in HEPES buffer, and the generated [3H]-inositol phosphate are purified on Bio-Rad AG 1-X8 anion-exchange resin and counted in a beta counter. Determinations are made in duplicates. […] Protocol as for the Y2 potency assay, except that human Y4-transformed COS-7 cells are used.

[1] = COS-7 cells transiently transfected with human Y2 receptor and Gqi5, [3H]-inositol phosphate turnover, peptide 45 min at 37 C, read-out: hY2 EC50
[2] = human Y1-transformed COS-7 cells, [3H]-inositol phosphate turnover, peptide 45 min at 37 C, read-out: hY1 EC50

T3 sequence (P50391 whole entry): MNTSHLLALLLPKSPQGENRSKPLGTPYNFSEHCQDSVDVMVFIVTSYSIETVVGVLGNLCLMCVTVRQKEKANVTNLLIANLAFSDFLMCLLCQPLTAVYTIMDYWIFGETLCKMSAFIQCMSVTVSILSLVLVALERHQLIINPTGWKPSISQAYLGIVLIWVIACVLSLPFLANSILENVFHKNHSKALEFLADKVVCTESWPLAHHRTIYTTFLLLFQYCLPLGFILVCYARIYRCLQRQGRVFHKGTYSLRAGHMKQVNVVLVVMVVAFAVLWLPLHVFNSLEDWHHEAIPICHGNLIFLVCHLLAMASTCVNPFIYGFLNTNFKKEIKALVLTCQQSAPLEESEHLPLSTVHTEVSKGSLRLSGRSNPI

Molecule | EC50 (human Y2 receptor; [1]) [nM] | EC50 (human Y1 receptor; [2]) [nM] | other results
CC[C@H](C)[C@H](NC(=O)[C@H](Cc1ccc(O)cc1)NC(=O)[C@H](CCCNC(=N)N)NC(=O)[C@H](CCCNC(=N)N)NC(=O)[C@H](CC(C)C)NC(=O)[C@H](CC(=O)O)NC(=O)[C@H](C)NC(=O)[C@H](C)NC(=O)[C@H](Cc1ccc(O)cc1)NC(=O)[C@H](CCC(N)=O)NC(=O)[C@H](C)NC(=O)[C@H](CCSC)NC(=O)[C@H](CCC(N)=O)NC(=O)[C@H](CCC(=O)O)NC(=O)[C@@H]1CCCN1C(=O)[C@@H](NC(=O)[C@H](C)NC(=O)[C@H](CC(N)=O)NC(=O)[C@H](CCC(=O)O)NC(=O)CNC(=O)[C@@H]1CCCN1C(=O)[C@H](Cc1ccc(O)cc1)NC(=O)[C@@H](NC(=O)[C@@H]1CCCN1C(=O)[C@H](CCC(=O)O)NC(=O)[C@H](CC(C)C)NC(=O)[C@@H]1CCCN1)C(C)C)[C@@H](C)O)C(=O)N[C@@H](CC(N)=O)C(=O)N[C@@H](CCSC)C(=O)N[C@@H](CC(C)C)C(=O)N[C@H](C(=O)N[C@@H](CCCNC(=N)N)C(=O)N1CCC[C@H]1C(=O)N[C@@H](CCCNC(=N)N)C(=O)N[C@@H](Cc1ccc(O)cc1)C(N)=O)[C@@H](C)O [[Glu-10]-PP(2-36), [Glu10]PP2-36] |  |  | EC50 (human Y2 receptor): > 1000 nM
CCCC[C@H](NC(=O)[C@H](CCC(N)=O)NC(=O)[C@H](CCC(=O)O)NC(=O)[C@@H]1CCCN1C(=O)[C@@H](NC(=O)[C@H](C)NC(=O)[C@H](CC(N)=O)NC(=O)[C@H](CC(=O)O)NC(=O)CNC(=O)[C@@H]1CCCN1C(=O)[C@H](Cc1ccc(O)cc1)NC(=O)[C@@H](NC(=O)[C@@H]1CCCN1C(=O)[C@H](CCC(=O)O)NC(=O)[C@H](CC(C)C)NC(=O)[C@@H]1CCCN1)C(C)C)[C@@H](C)O)C(=O)N[C@@H](C)C(=O)N[C@@H](CCC(N)=O)C(=O)N[C@@H](Cc1ccc(O)cc1)C(=O)N[C@@H](C)C(=O)N[C@@H](C)C(=O)N[C@@H](CC(=O)O)C(=O)N[C@@H](CC(C)C)C(=O)N[C@@H](CCCNC(=N)N)C(=O)N[C@@H](CCCNC(=N)N)C(=O)N[C@@H](Cc1ccc(O)cc1)C(=O)N[C@H](C(=O)N[C@@H](CC(N)=O)C(=O)N[C@@H](CCCC)C(=O)N[C@@H](CC(C)C)C(=O)N[C@H](C(=O)N[C@@H](CCCNC(=N)N)C(=O)N1CCC[C@H]1C(=O)N[C@@H](CCCNC(=N)N)C(=O)N[C@@H](Cc1ccc(O)cc1)C(N)=O)[C@@H](C)O)[C@@H](C)CC [[Nle17,Nle30]-PP(2-36), [Nle17, Nle30]PP2-36] | > 1000 |  | 
PLEPVYPGDNATPEQMAQYAADLRRYINALTRPRY-NH2 [[Ala-30]-PP(2-36), [Ala30]PP2-36] | > 1000 | > 1000 | 
PLEPVYPGDNATPEQMAQYAADLRRYINNLTRPRY-NH2 [[Asn-30]-PP(2-36), [Asn30]PP2-36] | > 1000 | > 1000 | 
PLEPVYPGDNATPEQMAQYAADLRRYINQLTRPRY-NH2 [[Gln-30]-PP(2-36), [Gln30]PP2-36] | > 1000 | > 1000 | 
PLEPVYPGDNATPEQMAQYAADLRRYINTLTRPRY-NH2 [[Thr-30]-PP(2-36), [Thr30]PP2-36] | > 1000 | > 1000 | EC50 (human Y4 receptor; human Y4-transformed COS-7 cells, [3H]-inositol phosphate turnover, peptide 45 min at 37 C, read-out: hY4 EC50): 1.07 nM
PLEPVYPGENATPEQLAQYAADLRRYINTLTRPRY-NH2 [[Glu10;Leu17;Thr-30]-PP(2-36), [Glu10, Leu17, Thr30]PP2-36] |  |  | EC50 (human Y4 receptor): 1.07 nM; EC50 (human Y1 receptor): > 1000 nM; EC50 (human Y2 receptor): > 1000 nM

Source: patent US8022035B2, “Y4 selective receptor agonists for therapeutic interventions” (7TM Pharma A/S, priority 2005, dated 2011)
